The results in this text go back to patent US9957271B2, “Substituted bicyclic aza-heterocycles and analogues as sirtuin modulators” (GlaxoSmithKline, LLC, priority 2012, dated 2018).

Read-outs that look alike come from different tables or passages of the source. Bounds are passed on as bounds.

The target of the test is T1, SIRT1 (Homo sapiens, UniProt Q96EB6).
T1 sequence (Q96EB6 1-747): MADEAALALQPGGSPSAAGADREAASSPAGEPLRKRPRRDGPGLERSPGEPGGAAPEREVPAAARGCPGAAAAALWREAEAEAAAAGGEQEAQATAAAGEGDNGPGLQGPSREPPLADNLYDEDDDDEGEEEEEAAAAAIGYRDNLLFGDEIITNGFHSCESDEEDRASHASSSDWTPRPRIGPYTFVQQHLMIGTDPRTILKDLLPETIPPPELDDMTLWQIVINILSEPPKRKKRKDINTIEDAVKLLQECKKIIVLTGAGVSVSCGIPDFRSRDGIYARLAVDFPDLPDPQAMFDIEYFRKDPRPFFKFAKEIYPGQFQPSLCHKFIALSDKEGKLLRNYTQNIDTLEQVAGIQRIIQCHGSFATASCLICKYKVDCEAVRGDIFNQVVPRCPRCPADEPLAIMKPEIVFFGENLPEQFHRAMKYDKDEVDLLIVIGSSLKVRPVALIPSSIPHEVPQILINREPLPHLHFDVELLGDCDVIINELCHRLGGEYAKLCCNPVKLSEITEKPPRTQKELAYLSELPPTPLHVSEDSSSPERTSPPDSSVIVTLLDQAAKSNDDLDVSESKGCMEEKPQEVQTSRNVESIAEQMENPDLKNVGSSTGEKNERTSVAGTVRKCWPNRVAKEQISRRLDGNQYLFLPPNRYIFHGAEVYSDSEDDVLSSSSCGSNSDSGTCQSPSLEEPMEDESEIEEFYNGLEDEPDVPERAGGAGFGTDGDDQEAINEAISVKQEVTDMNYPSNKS
Description: TAMRA based mass spectrometry assay of SIRT1 activity. The test is classed as biochemical. As to conditions: for Emax: read-out: TAMRA % Fold Act. The method, boiled down:
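Deacetylation of a biotinylated, TAMRA-tagged p53-based peptide (0.5 μM) by 10 nM His-tagged SIRT1 with 120 μM βNAD+, 25 °C for 25 min, pH 8 Tris-acetate buffer, across a compound concentration range. Quenched by formic acid and read by mass spec as product peptide or OAADPR; activity relative to DMSO reactions, nicotinamide defining maximal inhibition.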

Where [1] appears, read: TAMRA assay, concentration giving 150% activation of SIRT1.
Where [2] appears, read: TAMRA assay, percent maximum fold activation.
[3] abbreviates: concentration of test compound giving 150% activation of SIRT1, TAMRA peptide substrate.
Where [4] appears, read: percent maximum fold activation of SIRT1, TAMRA peptide substrate.
The mark [5] stands for this setting: TAMRA peptide substrate, concentration giving 150% activation of SIRT1.
[6] abbreviates: TAMRA peptide substrate, percent maximum fold activation.

For `O=C(Nc1cncc(OCC(O)CO)n1)c1c(O)nc2ccc(-c3ccccc3C(F)(F)F)nn12` (centres unmarked) [Compound 345], the “TAMRA EC1.5 (μM)” value under setting [1] is given as “B (EC1.5 1-25 μM)”. For the same compound, the Emax under setting [2] was not below 350%.
As to `Cc1cc(-c2ccccc2C(F)(F)F)nn2c(C(=O)Nc3cnccn3)cnc12` [Compound 208], the “TAMRA EC1.5 (μM)” value under setting [1] is given as “A (EC1.5<1 μM)”. The Emax under setting [2] is not below 350%.
Regarding `O=C(Nc1ccnc(N2CCC2)c1)c1cnc2ccc(-c3ccccc3C(F)F)nn12` [Compound 52], under setting [3], the “TAMRA EC1.5 (μM)” value is listed as “A (EC1.5<1 μM)”. The Emax under setting [4] was not below 350%.
`COCCOc1cc(NC(=O)c2cnc3c(C)cc(-c4ccccc4C(F)(F)F)nn23)ncn1` [Compound 662]: the “TAMRA EC1.5 (μM)” value under setting [1] is recorded as “A (EC1.5<1 μM)”. In addition, under setting [2], the Emax was less than 350%.
Consider `O=C(Nc1cnc2ccc(-c3ccccc3OC(F)(F)F)nn12)c1cccc(N2CCC2)n1` [Compound 322], for which the “TAMRA EC1.5 (μM)” value under setting [1] is “A (EC1.5<1 μM)”. In addition, the Emax under setting [2] is not below 350%.
The like results for `Cc1ncccc1NC(=O)c1c(C)nn2ccc(-c3ccccc3C(F)(F)F)nc12` [Compound 699] were, in that order, “A (EC1.5<1 μM)” and less than 350%.
For the compound `CC1(COc2cccc(NC(=O)c3cnc4ccc(-c5ccccc5OC(F)(F)F)nn34)n2)COC1` [Compound 400], the “TAMRA EC1.5” value under setting [5] was “A (EC1.5<1 μM)”. Moreover, under setting [6], the Emax was not below 350%.
Turning to `Cc1ccc(NC(=O)c2c(C)nc3ccc(-c4ccccc4Br)nn23)nn1` [Compound 764], the “TAMRA EC1.5 (μM)” value under setting [1] is “A (EC1.5<1 μM)”. In addition, the Emax under setting [2] is not below 350%.
With `Cc1noc(C)c1-c1ccc2ncc(C(=O)Nc3ccnc(N4CCCC4)c3)n2n1` [Compound 54, 6-(3,5-dimethylisoxazol-4-yl)-N-(2-(pyrrolidin-1-yl)pyridin-4-yl)imidazo[1,2-b]pyridazine-3-carboxamide], the “TAMRA EC1.5 (μM)” value under setting [3] was “C (EC1.5>25 μM)”. Under setting [4], the Emax was less than 350%.
Turning to `Cc1cc2ncc(NC(=O)c3nccs3)n2nc1-c1ccccc1C(F)(F)F` [Compound 446], the “TAMRA EC1.5” value under setting [5] is “A (EC1.5<1 μM)”. In addition, the Emax under setting [6] is not below 350%.
In the case of `O=C(Nc1cccnc1)c1cnc2ccc(-c3ccccc3Cl)nn12` [Compound 118], the “TAMRA EC1.5 (μM)” value under setting [3] is “B (EC1.5 1-25 μM)”. Under setting [4], the Emax is less than 350%.
For the compound `Cc1cnc(NC(=O)c2c(C)nn3ccc(-c4ccccc4C(F)(F)F)nc23)s1` [Compound 652], under setting [1], the “TAMRA EC1.5 (μM)” value is listed as “A (EC1.5<1 μM)”. Also, the Emax under setting [2] was not below 350%.
`Cc1nc2c(C)cc(-c3ccccc3C(F)(F)F)nn2c1C(=O)Nc1ccnc(OC2CCOCC2)n1` [Compound 593]: the “TAMRA EC1.5” value under setting [5] was “A (EC1.5<1 μM)”. Besides, under setting [6], the Emax is not below 350%.
On to `Cc1cc2ncc(C(=O)Nc3cccc(N4CCOCC4)n3)n2nc1-c1ccccc1C(F)(F)F` [Compound 209], for which the “TAMRA EC1.5 (μM)” value under setting [1] is given as “A (EC1.5<1 μM)”. The Emax under setting [2] is not below 350%.
For `Cc1scnc1C(=O)Nc1cnc2c(C)c(C)c(-c3ccccc3Cl)nn12` [Compound 385], the “TAMRA EC1.5 (μM)” value under setting [1] was “A (EC1.5<1 μM)”. The Emax under setting [2] is not below 350%.
As to `O=C(Nc1cnc2ccc(-c3ccccc3Cl)nn12)c1cccc(N2CCOCC2)n1` [Compound 307], under setting [1], the “TAMRA EC1.5 (μM)” value is on record as “A (EC1.5<1 μM)”. In addition, the Emax under setting [2] was not below 350%.
`Cc1nc2c(C)cc(-c3ccccc3OC(F)(F)F)nn2c1C(=O)Nc1cccnn1` [Compound 479]: the “TAMRA EC1.5” value under setting [5] is reported as “A (EC1.5<1 μM)”. For the same compound, the Emax under setting [6] was not below 350%.
In the case of `Cc1csc(NC(=O)c2cnn3ccc(-c4ccccc4OC(F)(F)F)nc23)n1` [Compound 702], the “TAMRA EC1.5 (μM)” value under setting [1] was “A (EC1.5<1 μM)”. Moreover, under setting [2], the Emax is not below 350%.
The like results for `CCOc1ccc(NC(=O)c2c(C)nc3ccc(-c4ccccc4Cl)nn23)nn1` [Compound 744] were, in that order, “A (EC1.5<1 μM)” and less than 350%.
Regarding `O=C(Nc1cccc(OCC(F)(F)F)n1)c1cnc2ccc(-c3ccccc3C(F)(F)F)nn12` [Compound 264], the “TAMRA EC1.5 (μM)” value under setting [1] is on record as “B (EC1.5 1-25 μM)”. Further, the Emax under setting [2] is not below 350%.
With `O=C(Nc1cnccn1)c1cnn2ccc(-c3ccccc3OC(F)(F)F)nc12` [Compound 532], the “TAMRA EC1.5” value under setting [5] is on record as “A (EC1.5<1 μM)”. In addition, under setting [6], the Emax was not below 350%.
On to `O=C(Nc1cnccn1)c1cnc2ccc(-c3ccccc3OC(F)(F)F)nn12` [Compound 362], for which the “TAMRA EC1.5 (μM)” value under setting [1] is recorded as “A (EC1.5<1 μM)”. Under setting [2], the Emax was not below 350%.
`N#Cc1ccccc1-c1ccc2ncc(NC(=O)c3ccccn3)n2n1` [Compound 328]: the “TAMRA EC1.5 (μM)” value under setting [1] is recorded as “A (EC1.5<1 μM)”. Besides, under setting [2], the Emax is not below 350%.
With `Cc1cc(-c2ccccc2C(F)(F)F)nn2c(NC(=O)c3nccs3)cnc12` [Compound 414], under setting [5], the “TAMRA EC1.5” value is recorded as “A (EC1.5<1 μM)”. The Emax under setting [6] is not below 350%.
Consider `O=C(Nc1ccnc(N2CC3(CCO3)C2)n1)c1cnc2ccc(-c3ccccc3C(F)(F)F)nn12` [Compound 592], for which, under setting [5], the “TAMRA EC1.5” value is reported as “A (EC1.5<1 μM)”. The Emax under setting [6] is not below 350%.
On to `Cc1cc(C(=O)Nc2cnn3ccc(-c4ccccc4C(F)(F)F)nc23)nc(C)n1` [Compound 795], for which the “TAMRA EC1.5 (μM)” value under setting [1] is recorded as “A (EC1.5<1 μM)”. The Emax under setting [2] is not below 350%.
As to `Cc1scnc1C(=O)Nc1cnc2ccc(-c3ccccc3C(F)(F)F)nn12` [Compound 271], the “TAMRA EC1.5 (μM)” value under setting [1] is “A (EC1.5<1 μM)”. Further, under setting [2], the Emax is not below 350%.
The like results for `Cc1cc(NC(=O)c2cnn3ccc(-c4ccccc4OC(F)(F)F)nc23)cc(C)n1` [Compound 611] were, in that order, “A (EC1.5<1 μM)” and not below 350%.
With `O=C(Nc1cnc2ccc(-c3ccccc3OC(F)(F)F)nn12)c1nccs1` [Compound 319], the “TAMRA EC1.5 (μM)” value under setting [1] is recorded as “A (EC1.5<1 μM)”. The Emax under setting [2] was not below 350%.
The like results for `O=C(Nc1cc(O)ncn1)c1cnn2ccc(-c3ccccc3C(F)(F)F)nc12` [Compound 813] were, in that order, “A (EC1.5<1 μM)” and not below 350%.
For `Cc1cnc(NC(=O)c2c(C)nn3ccc(-c4ccccc4C(F)(F)F)nc23)c(C)n1` [Compound 753], the “TAMRA EC1.5 (μM)” value under setting [1] was “B (EC1.5 1-25 μM)”. Further, under setting [2], the Emax was not below 350%.
Take `O=C(Nc1ncc(F)cc1F)c1cnc2ccc(-c3ccccc3C(F)(F)F)nn12` [Compound 111]: the “TAMRA EC1.5 (μM)” value under setting [3] is reported as “B (EC1.5 1-25 μM)”. For the same compound, the Emax under setting [4] was less than 350%.
With `Cc1cc(NC(=O)c2cnc3ccc(-c4cccc(OCC(O)CO)c4)nn23)ccn1` (centres unmarked) [Compound 374], the “TAMRA EC1.5 (μM)” value under setting [1] is “B (EC1.5 1-25 μM)”. Moreover, under setting [2], the Emax was less than 350%.
On to `Cc1nc2ccc(-c3ccccc3C(F)(F)F)nn2c1C(=O)Nc1nccc(N2CCCC2)n1` [Compound 669], for which, under setting [1], the “TAMRA EC1.5 (μM)” value is “A (EC1.5<1 μM)”. In addition, the Emax under setting [2] is not below 350%.
In the case of `O=C(Nc1cnccn1)c1cnc2ccc(-c3cccc(F)c3Cl)nn12` [Compound 184], the “TAMRA EC1.5 (μM)” value under setting [3] was “B (EC1.5 1-25 μM)”. Moreover, the Emax under setting [4] was less than 350%.
As to `Cc1cccc(NC(=O)c2cnc3ccc(-c4cccc(OCC(O)CO)c4)nn23)n1` (centres unmarked) [Compound 416], the “TAMRA EC1.5” value under setting [5] is “A (EC1.5<1 μM)”. Under setting [6], the Emax is not below 350%.
`O=C(Nc1cnn2ccc(-c3ccccc3C(F)(F)F)nc12)c1ncccn1` [Compound 252]: the “TAMRA EC1.5 (μM)” value under setting [1] was “B (EC1.5 1-25 μM)”. Besides, under setting [2], the Emax is not below 350%.
